The data set in a line: Storage stability of liquid compositions in a sealed container, 8 weeks at 40° C., loss by HPLC. Conditions: inert ingredients of Composition #7 of Table 3, aged 8 weeks at 40° C. Format: physicochemical.

As for `COC(=O)c1sccc1S(=O)(=O)NC(=O)Nc1nc(C)nc(OC)n1` [Thifensulfuron-methyl, thifensulfuron-methyl], the “relative loss of thifensulfuron-methyl” value was “less than 5 % w/w”.

These data come from patent US11109588B2, “Stable liquid formulations and methods of using the same” (priority 2019, dated 2021).
